Experiments:
Histamine H3 receptor = Histamine H3 receptor (Cavia porcellus, UniProt Q9JI35); experiment: Potency at histamine H3 receptor subtype, was tested on guinea pig right ileum
Histamine H1 receptor = Histamine H1 receptor (Cavia porcellus, UniProt P31389); experiment: Potency at histamine H1 receptor subtype, was tested on guinea pig right ileum
Histamine H2 receptor = Histamine H2 receptor (Cavia porcellus, UniProt P47747); experiment: Potency at histamine H2 receptor subtype, was tested on guinea pig right atrium
Sequence of Histamine H2 receptor (P47747 whole entry): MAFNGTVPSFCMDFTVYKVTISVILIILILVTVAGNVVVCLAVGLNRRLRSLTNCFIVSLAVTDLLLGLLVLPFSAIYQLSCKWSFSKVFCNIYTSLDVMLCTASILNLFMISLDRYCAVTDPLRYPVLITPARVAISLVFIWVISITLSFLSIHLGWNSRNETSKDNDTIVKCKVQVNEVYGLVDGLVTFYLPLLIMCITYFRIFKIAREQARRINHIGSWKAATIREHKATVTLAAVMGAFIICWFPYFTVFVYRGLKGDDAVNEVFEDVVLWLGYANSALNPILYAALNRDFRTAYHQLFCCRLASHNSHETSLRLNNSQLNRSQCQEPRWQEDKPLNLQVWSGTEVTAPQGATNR

Sequence of Histamine H1 receptor (P31389 whole entry): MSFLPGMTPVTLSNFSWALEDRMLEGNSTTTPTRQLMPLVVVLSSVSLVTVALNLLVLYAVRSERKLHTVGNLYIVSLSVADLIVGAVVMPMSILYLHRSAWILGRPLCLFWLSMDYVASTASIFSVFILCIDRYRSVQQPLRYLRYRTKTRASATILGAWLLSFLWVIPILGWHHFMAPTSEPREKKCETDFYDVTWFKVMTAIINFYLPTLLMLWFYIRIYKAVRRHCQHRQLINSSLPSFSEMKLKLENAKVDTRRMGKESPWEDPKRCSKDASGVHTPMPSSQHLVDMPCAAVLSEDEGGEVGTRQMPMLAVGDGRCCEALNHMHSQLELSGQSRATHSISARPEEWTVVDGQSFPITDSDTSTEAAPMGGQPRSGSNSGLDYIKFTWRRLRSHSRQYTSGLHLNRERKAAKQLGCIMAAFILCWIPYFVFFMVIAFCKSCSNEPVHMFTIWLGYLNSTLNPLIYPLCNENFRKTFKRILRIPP
Sequence of Histamine H3 receptor (Q9JI35 whole entry): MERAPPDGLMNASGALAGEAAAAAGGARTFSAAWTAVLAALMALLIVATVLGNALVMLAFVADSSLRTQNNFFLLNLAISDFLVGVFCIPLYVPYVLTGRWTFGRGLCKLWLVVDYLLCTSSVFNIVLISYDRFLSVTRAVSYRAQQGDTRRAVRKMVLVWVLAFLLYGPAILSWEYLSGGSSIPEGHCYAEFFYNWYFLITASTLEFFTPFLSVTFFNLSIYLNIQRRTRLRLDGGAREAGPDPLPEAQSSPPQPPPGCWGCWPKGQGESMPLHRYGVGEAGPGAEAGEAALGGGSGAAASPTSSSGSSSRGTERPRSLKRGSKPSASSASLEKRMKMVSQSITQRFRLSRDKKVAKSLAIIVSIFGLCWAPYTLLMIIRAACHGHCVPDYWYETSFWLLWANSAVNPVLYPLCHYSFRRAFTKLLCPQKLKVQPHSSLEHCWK

Kd (Histamine H3 receptor): 0.0851 µM
Kd (Histamine H1 receptor): 7.94 µM
Kd (Histamine H2 receptor): 14.1 µM
Structure (SMILES): CC(N=O)c1ccc(OCc2ccc(CN3CCCCC3)cc2)cc1 (stereo not drawn) [1-[4-(4-Piperidin-1-ylmethyl-benzyloxy)-phenyl]-ethanone oxime]

— BindingDB's records for doi:10.1021/jm021084k (2003)
